Results reported in patent US9408852B2, “Method of lowering serum uric acid levels with (S)-tofisopam” (PHARMOS CORPORATION, priority 2011, dated 2016).

Key:
Type in all cases: in vivo, human
serum uric acid [1] = assay: Serum uric acid in postmenopausal women, single- and multiple-dose study (Comparative Example 4); design: Serum uric acid, baseline adjusted data, Median / Serum uric acid, unadjusted data, Mean / Serum uric acid, unadjusted data, Median / Serum uric acid, baseline adjusted data, Mean: unit not given here
Procedure: In a double-blind, randomized, placebo-controlled, single- and multiple-dose study in postmenopausal women with enantiomerically-pure (R)-tofisopam, patients were treated with placebo, 100 mg once a day (qd) of (R)-tofisopam, or 200 mg qd of (R)-tofisopam for the first day of the study, and then with placebo, 100 mg twice a day (bid) of (R)-tofisopam, or 200 mg bid of (R)-tofisopam for Days 2 to 7 of the study.

serum uric acid [2] = assay: Serum uric acid in male and female outpatients with irritable bowel syndrome, 3 months (Comparative Example 5); design: Serum uric acid Actual Value, Mean / Serum uric acid Change from Baseline, Mean / Serum uric acid Actual Value, Median / Serum uric acid Change from Baseline, Median: unit not given here; details: for Serum uric acid Actual Value, Mean / Serum uric acid Actual Value, Median / Serum uric acid Change from Baseline, Mean / Serum uric acid Change from Baseline, Median: men and women with irritable bowel syndrome
Procedure: The study lasted 3 months, and patients were treated with 200 mg of (R)-tofisopam twice a day (bid).

serum uric acid [3] = assay: Serum uric acid in female outpatients with irritable bowel syndrome, 3 months (Comparative Example 6); design: Serum uric acid Actual Value, Mean / Serum uric acid Change from Baseline, Mean / Serum uric acid Actual Value, Median / Serum uric acid Change from Baseline, Median: unit not given here; details: for Serum uric acid Actual Value, Mean / Serum uric acid Actual Value, Median / Serum uric acid Change from Baseline, Mean / Serum uric acid Change from Baseline, Median: women with irritable bowel syndrome
Procedure: The study lasted 3 months, and patients were treated with 100 mg, 200 mg or 300 mg of enantiomerically-pure (R)-tofisopam twice a day.

[4] = 100 mg bid (qd on D 1, bid on D 2 to D 7), time 6 h
[5] = 100 mg bid (qd on D 1, bid on D 2 to D 7), time 24 h
[6] = 100 mg bid (qd on D 1, bid on D 2 to D 7), time 72 h
[7] = 100 mg bid (qd on D 1, bid on D 2 to D 7), time 143 h
[8] = 100 mg bid (qd on D 1, bid on D 2 to D 7), time 168 h
[9] = 200 mg bid (qd on D 1, bid on D 2 to D 7), time 6 h
[10] = 200 mg bid (qd on D 1, bid on D 2 to D 7), time 24 h
[11] = 200 mg bid (qd on D 1, bid on D 2 to D 7), time 72 h
[12] = 200 mg bid (qd on D 1, bid on D 2 to D 7), time 143 h
[13] = 200 mg bid (qd on D 1, bid on D 2 to D 7), time 168 h

For CC[C@H]1C(C)=NN=C(c2ccc(OC)c(OC)c2)c2cc(OC)c(OC)cc21 [(R)-tofisopam], the “Serum uric acid, baseline adjusted data, Mean” value (serum uric acid [1]; [4]) was 0, the “Serum uric acid, baseline adjusted data, Median” value (serum uric acid [1]; [4]) was 0 and the “Serum uric acid, unadjusted data, Mean” value (serum uric acid [1]; [4]) was 0.19. The “Serum uric acid, unadjusted data, Median” value (serum uric acid [1]; [4]) was 0.19, the “Serum uric acid, baseline adjusted data, Mean” value (serum uric acid [1]; [5]) was 0.01 and the “Serum uric acid, baseline adjusted data, Median” value (serum uric acid [1]; [5]) was 0.01. For the same compound, the “Serum uric acid, unadjusted data, Mean” value (serum uric acid [1]; [5]) was 0.20, the “Serum uric acid, unadjusted data, Median” value (serum uric acid [1]; [5]) was 0.21 and the “Serum uric acid, baseline adjusted data, Mean” value (serum uric acid [1]; [6]) was 0.01. For the same compound, the “Serum uric acid, baseline adjusted data, Median” value (serum uric acid [1]; [6]) was 0.01, the “Serum uric acid, unadjusted data, Mean” value (serum uric acid [1]; [6]) was 0.20 and the “Serum uric acid, unadjusted data, Median” value (serum uric acid [1]; [6]) was 0.21. For the same compound, the “Serum uric acid, baseline adjusted data, Mean” value (serum uric acid [1]; [7]) was 0.01, the “Serum uric acid, baseline adjusted data, Median” value (serum uric acid [1]; [7]) was 0.01 and the “Serum uric acid, unadjusted data, Mean” value (serum uric acid [1]; [7]) was 0.20. The “Serum uric acid, unadjusted data, Median” value (serum uric acid [1]; [7]) was 0.20, the “Serum uric acid, baseline adjusted data, Mean” value (serum uric acid [1]; [8]) was 0.03 and the “Serum uric acid, baseline adjusted data, Median” value (serum uric acid [1]; [8]) was 0.03. The “Serum uric acid, unadjusted data, Mean” value (serum uric acid [1]; [8]) was 0.23, the “Serum uric acid, unadjusted data, Median” value (serum uric acid [1]; [8]) was 0.23 and the “Effect on serum uric acid levels” value (serum uric acid [1]; 100 mg or 200 mg qd first day, bid Days 2 to 7) was “does not decrease”. The “Serum uric acid, baseline adjusted data, Mean” value (serum uric acid [1]; [9]) was −0.01, the “Serum uric acid, baseline adjusted data, Median” value (serum uric acid [1]; [9]) was −0.01 and the “Serum uric acid, unadjusted data, Mean” value (serum uric acid [1]; [9]) was 0.21. For the same compound, the “Serum uric acid, unadjusted data, Median” value (serum uric acid [1]; [9]) was 0.21, the “Serum uric acid, baseline adjusted data, Mean” value (serum uric acid [1]; [10]) was −0.01 and the “Serum uric acid, baseline adjusted data, Median” value (serum uric acid [1]; [10]) was −0.01. The “Serum uric acid, unadjusted data, Mean” value (serum uric acid [1]; [10]) was 0.21, the “Serum uric acid, unadjusted data, Median” value (serum uric acid [1]; [10]) was 0.21 and the “Serum uric acid, baseline adjusted data, Mean” value (serum uric acid [1]; [11]) was 0. For the same compound, the “Serum uric acid, baseline adjusted data, Median” value (serum uric acid [1]; [11]) was 0, the “Serum uric acid, unadjusted data, Mean” value (serum uric acid [1]; [11]) was 0.22 and the “Serum uric acid, unadjusted data, Median” value (serum uric acid [1]; [11]) was 0.22. The “Serum uric acid, baseline adjusted data, Mean” value (serum uric acid [1]; [12]) was −0.01, the “Serum uric acid, baseline adjusted data, Median” value (serum uric acid [1]; [12]) was 0 and the “Serum uric acid, unadjusted data, Mean” value (serum uric acid [1]; [12]) was 0.21. For the same compound, the “Serum uric acid, unadjusted data, Median” value (serum uric acid [1]; [12]) was 0.21, the “Serum uric acid, baseline adjusted data, Mean” value (serum uric acid [1]; [13]) was 0.01 and the “Serum uric acid, baseline adjusted data, Median” value (serum uric acid [1]; [13]) was 0.01. The “Serum uric acid, unadjusted data, Mean” value (serum uric acid [1]; [13]) was 0.22, the “Serum uric acid, unadjusted data, Median” value (serum uric acid [1]; [13]) was 0.23 and the “Serum uric acid levels over time” value (serum uric acid [1]; up to 168 hours (7 days) after initiation of treatment) was “remained constant”. For the same compound, the “Serum uric acid Actual Value, Mean” value (serum uric acid [2]; 200 mg bid, 3 months Endpoint) was 5.20, the “Serum uric acid Actual Value, Median” value (serum uric acid [2]; 200 mg bid, 3 months Endpoint) was 5.10 and the “Serum uric acid Change from Baseline, Mean” value (“Serum uric acid Change … Mean” for short) (serum uric acid [2]; 200 mg bid, 3 months Endpoint) was −0.06. For the same compound, the “Serum uric acid Change from Baseline, Median” value (serum uric acid [2]; 200 mg bid, 3 months Endpoint) was 0.00, the “Serum uric acid Actual Value, Mean” value (serum uric acid [2]; 200 mg bid, Day 7) was 5.18 and the “Serum uric acid Actual Value, Median” value (serum uric acid [2]; 200 mg bid, Day 7) was 5.00. For the same compound, the “Serum uric acid Change … Mean” value (serum uric acid [2]; 200 mg bid, Day 7) was −0.05, the “Serum uric acid Change from Baseline, Median” value (serum uric acid [2]; 200 mg bid, Day 7) was 0.00 and the “Serum uric acid Actual Value, Mean” value (serum uric acid [2]; 200 mg bid, Day 14) was 5.22. The “Serum uric acid Actual Value, Median” value (serum uric acid [2]; 200 mg bid, Day 14) was 5.05, the “Serum uric acid Change … Mean” value (serum uric acid [2]; 200 mg bid, Day 14) was −0.01 and the “Serum uric acid Change from Baseline, Median” value (serum uric acid [2]; 200 mg bid, Day 14) was −0.10. For the same compound, the “Serum uric acid Actual Value, Mean” value (serum uric acid [2]; 200 mg bid, Day 28) was 5.18, the “Serum uric acid Actual Value, Median” value (serum uric acid [2]; 200 mg bid, Day 28) was 5.00 and the “Serum uric acid Change … Mean” value (serum uric acid [2]; 200 mg bid, Day 28) was −0.07. The “Serum uric acid Change from Baseline, Median” value (serum uric acid [2]; 200 mg bid, Day 28) was −0.10, the “Serum uric acid Actual Value, Mean” value (serum uric acid [2]; 200 mg bid, Day 42) was 5.46 and the “Serum uric acid Actual Value, Median” value (serum uric acid [2]; 200 mg bid, Day 42) was 5.70. The “Serum uric acid Change … Mean” value (serum uric acid [2]; 200 mg bid, Day 42) was 0.12, the “Serum uric acid Change from Baseline, Median” value (serum uric acid [2]; 200 mg bid, Day 42) was 0.20 and the “Serum uric acid Actual Value, Mean” value (serum uric acid [2]; 200 mg bid, Day 56) was 5.40. For the same compound, the “Serum uric acid Actual Value, Median” value (serum uric acid [2]; 200 mg bid, Day 56) was 5.20, the “Serum uric acid Change … Mean” value (serum uric acid [2]; 200 mg bid, Day 56) was 0.02 and the “Serum uric acid Change from Baseline, Median” value (serum uric acid [2]; 200 mg bid, Day 56) was 0.00. For the same compound, the “Serum uric acid Actual Value, Mean” value (serum uric acid [2]; 200 mg bid, Day 84) was 5.37, the “Serum uric acid Actual Value, Median” value (serum uric acid [2]; 200 mg bid, Day 84) was 5.30 and the “Serum uric acid Change … Mean” value (serum uric acid [2]; 200 mg bid, Day 84) was 0.03. The “Serum uric acid Change from Baseline, Median” value (serum uric acid [2]; 200 mg bid, Day 84) was 0.10, the “Effect on serum uric acid levels” value (serum uric acid [2]; 200 mg twice a day (bid), 3 months, male and female outpatients with irritable bowel syndrome) was “does not decrease” and the “Serum uric acid levels over time” value (serum uric acid [2]; up to 3 months after initiation of treatment, 200 mg bid) was “remained constant”. For the same compound, the “Serum uric acid Actual Value, Mean” value (serum uric acid [3]; 100 mg BID, 3 months Endpoint) was 4.94, the “Serum uric acid Actual Value, Median” value (serum uric acid [3]; 100 mg BID, 3 months Endpoint) was 4.90 and the “Serum uric acid Change … Mean” value (serum uric acid [3]; 100 mg BID, 3 months Endpoint) was 0.22. For the same compound, the “Serum uric acid Change from Baseline, Median” value (serum uric acid [3]; 100 mg BID, 3 months Endpoint) was 0.20, the “Serum uric acid Actual Value, Mean” value (serum uric acid [3]; 100 mg BID, Week 12) was 4.91 and the “Serum uric acid Actual Value, Median” value (serum uric acid [3]; 100 mg BID, Week 12) was 4.80. For the same compound, the “Serum uric acid Change … Mean” value (serum uric acid [3]; 100 mg BID, Week 12) was 0.23, the “Serum uric acid Change from Baseline, Median” value (serum uric acid [3]; 100 mg BID, Week 12) was 0.20 and the “Effect on serum uric acid levels” value (serum uric acid [3]; 100 mg, 200 mg or 300 mg twice a day, 3 months, female outpatients with irritable bowel syndrome) was “does not decrease”. For the same compound, the “Serum uric acid Actual Value, Mean” value (serum uric acid [3]; 200 mg BID, 3 months Endpoint) was 4.82, the “Serum uric acid Actual Value, Median” value (serum uric acid [3]; 200 mg BID, 3 months Endpoint) was 4.60 and the “Serum uric acid Change … Mean” value (serum uric acid [3]; 200 mg BID, 3 months Endpoint) was −0.19. For the same compound, the “Serum uric acid Change from Baseline, Median” value (serum uric acid [3]; 200 mg BID, 3 months Endpoint) was −0.20, the “Serum uric acid Actual Value, Mean” value (serum uric acid [3]; 200 mg BID, Week 12) was 4.82 and the “Serum uric acid Actual Value, Median” value (serum uric acid [3]; 200 mg BID, Week 12) was 4.60. The “Serum uric acid Change … Mean” value (serum uric acid [3]; 200 mg BID, Week 12) was −0.20, the “Serum uric acid Change from Baseline, Median” value (serum uric acid [3]; 200 mg BID, Week 12) was −0.20 and the “Serum uric acid Actual Value, Mean” value (serum uric acid [3]; 300 mg BID, 3 months Endpoint) was 5.04. The “Serum uric acid Actual Value, Median” value (serum uric acid [3]; 300 mg BID, 3 months Endpoint) was 5.00, the “Serum uric acid Change … Mean” value (serum uric acid [3]; 300 mg BID, 3 months Endpoint) was −0.05 and the “Serum uric acid Change from Baseline, Median” value (serum uric acid [3]; 300 mg BID, 3 months Endpoint) was 0.00. For the same compound, the “Serum uric acid Actual Value, Mean” value (serum uric acid [3]; 300 mg BID, Week 12) was 5.02, the “Serum uric acid Actual Value, Median” value (serum uric acid [3]; 300 mg BID, Week 12) was 4.95 and the “Serum uric acid Change … Mean” value (serum uric acid [3]; 300 mg BID, Week 12) was −0.06. For the same compound, the “Serum uric acid Change from Baseline, Median” value (serum uric acid [3]; 300 mg BID, Week 12) was −0.05 and the “Serum uric acid levels over time” value (serum uric acid [3]; up to 3 months after initiation of treatment, 100, 200 or 300 mg twice a day) was “remained constant”.
